The record followed here is US12344879B2, “Transgenic bacteria with expanded amino acid usage and nucleic acid molecules for use in the same” (BOARD OF REGENTS, THE UNIVERSITY OF TEXAS SYSTEM, priority 2015, dated 2025).

The test system of data set [1] is E. coli dihydrofolate reductase (DHFR) position 39. Description: Selenocysteine incorporation into DHFR P39X by intact mass spectrometry. The settings on record: for serine incorporation in DHFR: mass spectrometry; for selenocysteine incorporation efficiency in DHFR: peak areas of the mass spectrum. Set-up: species or system E. coli RTΔA.2. The text has this:
To further enhance the efficiency of selenocysteine incorporation, a number of steps were taken to improve the levels of Sec-tRNA^Sec relative to Ser-tRNA^Sec, including increasing the level of SelA, decreasing the gene dose of tRNA^SecUx, and co-expressing a phosphoseryl-tRNA^Sec kinase (see Example 2 below). […] In order to further validate selenocysteine incorporation, the Pseudomonas aeruginosa metalloprotein azurin was also expressed with its essential cysteine (C112) replaced by selenocysteine and the human selenoprotein cellular glutathione peroxidase (GPx-1) (FIGS. 6a-6e and 8a-8b). For azurin, this chemical change had previously proven possible only through expressed protein ligation,^22 the essential cysteine could now be biologically replaced with selenocysteine with good efficiency as measured by mass spectrometry of the intact protein.
RTΔA.2 transformants containing pDHFR-P39X-AU and pRSF-eSelAK were cultured ON in LB medium containing 100 μg·mL^−1 ampicillin, 50 μg·mL^−1 kanamycin and 1 μM Na2SeO3. Overnight cultures were diluted 1/500 in a final volume of 2 L LB medium containing 50 μg·mL^−1 ampicillin, 25 μg·mL^−1 kanamycin and 5 μM Na2SeO3 and incubated with agitation for 24 hours at 37° C. Cells were harvested by centrifugation at 8000×g for 10 min and resuspended in 20 mL of wash buffer (100 mM Tris, 150 mM NaCl, 1 mM EDTA at pH 8.0) with protease inhibitor cocktail (cOmplete, mini EDTA free, Roche) and lysozyme at 1 mg·mL^−1. Following a 20 min incubation at 4° C. cells were lysed by sonication (Model 500, Fisher Scientific) and clarified by three times by centrifugation at 35000×g for 30 min. Lysate was passed through a 0.2 µm filter and seleno-DHFR recovered using Strep-Tactin affinity chromatography following the manufacturer's instructions (GE Healthcare). Eluate was concentrated to 3 mL and dialyzed against 50 mM NH4Ac pH 6.5 prior to the isolation of seleno-DHFR by size exclusion FPLC (ÄKTA, GE Healthcare). Seleno-DHFR was produced using tRNA^SecUx with a yield of 68 μg·L^−1 and 100% incorporation efficiency. Seleno-DHFR was produced using tRNA^UTu with a yield of 131 μg·L^−1 and 38.1% incorporation efficiency. DHFR containing serine at position 39 was produced with a yield of 225 μg·L^−1.
Intact protein samples were analyzed using methods described previously (Ellefson et al., 2014). Azurin, DHFR and GPx-1 samples were buffer exchanged into LC-MS grade water using 10 kDa molecular weight cutoff filters. […] UVPD mass spectra were also deconvoluted using Xtract and then analyzed using ProsightPC 3.0. […] Incorporation efficiencies were calculated by dividing the area of the modified protein peak by the summed areas of the unmodified protein peak and the modified protein peak. […]

Data set [2] concerns E. coli formate dehydrogenase H (FdhH). Description: Benzyl viologen assay. The data set is classed as cell-based, E. coli DHΔabcF. The settings on record: FdhH U140TAG or U140S reporter, co-expressed with SelA, anaerobic. As for the experimental part:
The tRNA^Sec variant containing the G7-C66:U49-G65:C50-U64 (SEQ ID NO: 18) antideterminant sequence was designated tRNA^SecUx and was compared with the previously designed chimera (tRNA^UTu) and with a tRNA^Sec derivative designed to have an antideterminant region that should tightly bind EF-Tu (tRNA^UG; FIG. 2a). […] The hybrid tRNA^UTu incorporated selenocysteine and could grow on 75 μg·ml^−1. […] To further confirm tRNA^SecUx incorporated selenocysteine in response to amber stop codons, a standard colorimetric assay was employed based on the activity of the endogenous E. coli selenoprotein formate dehydrogenase H (FdhH) (FIG. 2b).
E. coli DH10B cells containing pRSFDuet-1 and pcat-pheS were used as a positive control. DHΔabcF cells harboring p15A-fdhF U140S and pRSF-UX-eSelA, and p15A-fdhF U140X and pRSF-UX-ΔSelA were used as controls for selenocysteine dependent formate dehydrogenase activity. Transformants were grown overnight at 37° C. in LB medium supplemented with 12.5 μg·mL^−1 tetracycline and 50 μg·mL^−1 kanamycin. Overnight cultures were diluted 1/20 in a final volume of 2 ml and incubated for three hours. Cultures were normalized to OD600=0.5 and 5 μl aliquots were dotted on LB agar plates containing 3.75 μg·mL^−1 tetracycline, 12.5 μg·mL^−1 kanamycin, 5 mM sodium formate, 10 μM Na2MoO4, 1 μM Na2SeO3 and 20 μg·mL^−1 L-cysteine. Plates were incubated at 37° C. for 3 h under aerobic conditions and then transferred to anaerobic conditions at 37° C. for 60 h. Upon removal from the anaerobic chamber, plates were immediately overlaid with agar containing 1 mg·mL^−1 benzyl viologen, 250 mM sodium formate and 25 mM KH2PO4 at pH 7.0. Plates were photographed within 1 h of overlaying.

Values joined by “and” are separate entries in the source; they are usually repeats but may differ in a detail not shown here. Equal values may be shown once.

Consider “tRNA^SecUx: Evolved E. coli tRNA^Sec variant with the G7-C66:U49-G65:C50-U64 antideterminant sequence and CUA anticodon”, for which, in data set [1], the “serine incorporation in DHFR” value is on record as “no detectable background” and the “selenocysteine incorporation efficiency in DHFR” value was roughly 100%. Further, in data set [2], the “FdhH activity (reduction of benzyl viologen)” value is “produced active FdhH”.

As to “tRNA^UTu (GGAAGATGTGGCCGAGCGGTTGAAGGCACCGGT; expressed or natural sequence)”, in data set [1], the “serine incorporation in DHFR” value worked out at 62%; the “selenocysteine incorporation efficiency in DHFR” value was 38% and 38.1%. For the same substance, in data set [2], the “FdhH activity (reduction of benzyl viologen)” value is “produced active FdhH”.
